Measured values reported in patent US6447997B1, “Gene coding for GADD153 as a clinical diagnostic and prognostic in cancer therapy” (Research Development Foundation, priority 1997, dated 2002).

System: GADD153 mRNA
Assay: Change in GADD153 mRNA in tumor biopsies of head and neck cancer patients after cDDP-based treatment
Type: in vivo, human
Details: 24 h after start of first course
Method: The present inventors have also discovered that the prognostic method for clinical response by a tumor to a chemotherapeutic agent can accurately predict a corresponding therapeutic response by a patient even though there exist several sources for potential variation. The relationship between the change in GADD153 mRNA level at 24 h after the start of the first course of treatment with cDDP or cDDP plus radiation therapy and subsequent tumor clinical response to this therapy in 32 patients with stage IV head and neck cancer was examined.
Thirty-two patients with previously untreated stage IV head and neck cancer were treated at the UCSD Cancer Center on a phase I/II experimental protocol. All patients had been considered to have unresectable tumors. All patients received i.a. cDDP (150-200 mg/M^2) and i.v. sodium thiosulfate infusion concurrently. The details of this treatment program have been published elsewhere by the present inventors (17,18), which description is specifically incorporated herein by reference. cDDP was dissolved in 400 ml of 0.9% saline and infused over 3-5 minutes through a microcatheter placed angiographically to selectively encompass the dominant blood supply of the targeted tumor. Simultaneous with the cDDP infusion, sodium thiosulfate was infused i.v. at a dose of 9 g/m^2 dissolved in 300 ml of distilled water over 3 minutes, followed by 12 g/m^2 dissolved in one liter of distilled water over 6 h by continuous infusion to prevent severe nephrotoxicity. Treatment was repeated weekly for a total of 4 doses. […] Tumor response was assessed at 2 months using criteria based on physical examination, repeat computed tomography/magnetic resonance imaging studies, and repeat endoscopy and biopsy. […]
GADD153 message levels were quantified using a modification of the technique reported by Horikoshi et al (20). […] PCR products were separated on a 8 M (6%) acrylamide gel and analyzed using a Molecular Imaging System (BioRad, Hercules, Calif.). […]

[NH2][Pt]([NH2])([Cl])[Cl] [cDDP, cisplatin] was tested, and the “magnitude of increase, above baseline, in GADD153 mRNA, mean (SD)” value (“magnitude of increase, above baseline … (SD)” below) (CR group (17 patients)) was 3.8±2.2 fold, the “magnitude of increase, above baseline … (SD)” value (NR group (7 patients with tumor progression)) was 0.8±0.5 fold and the “magnitude of increase, above baseline … (SD)” value (PR group, all 8 patients) was 1.6±0.9 fold.
